Assay results taken from paper PMC9418147, “Identification and structure-based drug design of cell-active inhibitors of interleukin 17A at a novel C-terminal site” (Scientific Reports, 2022).
Several values for one entry are separate records, joined by “and”; a condition that tells them apart may be missing. Equal values may be shown once. Entries after “also recorded” stand apart in the source; their conditions may differ. Read-outs that look alike come from different tables or passages of the source. One block for each molecule: values may come before it.

Experiments:
IL17A [1] = molecular target: T1, IL17A (Homo sapiens, UniProt Q16552); assay: Fluorescence polarization competition assay with FP probe Cmpd 11; format: binding; conditions: for Competition for IL17A with FP probe: probe Cmpd 11
T1 construct: Biotinylated Avi-tag IL17A-(24–155) was produced by enzymatic biotinylation; 6His-MBP (N, cleaved yes); made in house; host or cells: Escherichia coli Shuffle T7 express (NEB)
T1 sequence (Q16552 24-155): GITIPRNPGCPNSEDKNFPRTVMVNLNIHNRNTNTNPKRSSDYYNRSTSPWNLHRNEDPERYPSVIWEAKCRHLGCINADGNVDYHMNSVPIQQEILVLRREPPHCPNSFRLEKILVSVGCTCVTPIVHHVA
Procedure: Fluorescence polarization (FP) assays were performed in black shallow 384-well micro plates (ProxiPlate – 384 F Plus, PerkinElmer) using Envision multimode plate reader (Perkin-Elmer). Polarization was measured by using an excitation filter of 485 nm and an emission filter of 535 nm. Each well was flashed 50 times, and the average values were used. Briefly, 5 µL of IL17A (20 nM) diluted in the assay buffer (50 mM Tris pH 8.0, 0.001% Tween) was added to compound containing wells and incubated for 60 min. To this, 5 µL of the FP probe (10 nM) was added and the reaction mixture was incubated for 120 min at room temperature prior to measuring FP. All inhibition experiments were normalized against DMSO control containing no inhibitor.

IL17A [2] = molecular target: T1, IL17A; assay: Compound binding to IL17A via surface plasmon resonance (SPR); conditions: for Kd: binding to IL17A
Procedure: Compounds were assayed via Surface Plasmon Resonance (SPR) using Biacore T200 instrument and Biacore 4000 [Formerly GE Healthcare (now Cytiva Life Sciences)]. […] Sensorgrams were processed (including solvent correction) and analyzed using Biacore T200 and Biacore 4000 evaluation software. The binding curves were fit to determine the equilibrium dissociation constant (KD) and kinetic constants (kon and koff).
Supplemental Figure 2: Measurement for binding of IL17A inhibitors by Surface Plasmon Resonance (SPR).

[3] = AlphaLISA TruHits counter screen for false positives; conditions: AlphaLISA non-specific effects; read-out: TruHits counterscreen IC50
Procedure: (§1) AlphaLISA technology was used to understand the ability of compounds to inhibit IL17A binding to IL17 receptor (IL17RA). Compounds of interest were diluted in 100% DMSO and plated in a 384 well white proxiplate (Perkin Elmer) using Echo Acoustic Liquid Handler (LabCyte Sunnydale, CA). To the compound plate, 4 µL of biotinylated IL17A (R&D systems) and 2 µL of IL17RA-Fc (R&D Systems) was added, to provide a final concentration of 1 nM of IL17RA-Fc and IL17A, respectively. The assay was carried out in 100 mM Tris, 0.01% Tween-20, 0.1% BSA, pH 8.0. The assay mixture was allowed to incubate at room temperature for 60 min, after which, 2 µL of protein A AlphaLISA acceptor beads (#AL101M, PerkinElmer) was added to a final concentration of 7.5 µg/mL for 60 min. To the plate, 2 µL of streptavidin donor beads (#6,760,002, PerkinElmer) was added to a final concentration of 7.5 µg/mL. The plate was allowed to incubate for one hour at room temperature, then loaded into the Envision multimode plate reader (Perkin Elmer). AlphaLISA TruHits Kits (#AL900D, PerkinElmer) were used to assess potential false positives. All inhibition experiments were normalized against DMSO control containing no inhibitor. Example raw data are shown in Supplementary Fig. 10A.

IL17A-IL17RA-Fc complex = molecular target: T2, IL17A-IL17RA-Fc complex (Homo sapiens, UniProt Q16552); assay: IL17A-IL17RA-Fc AlphaLISA assay; format: biochemical
T2 construct: purchased R&D Systems
T2 sequence (Q16552 24-155, one chain of several): as the sequence (Q16552 24-155) above
Procedure: as §1

[4] = test system: TNF-only stimulated HeLa reporter cells; assay: TNF-only stimulated HeLa-LCN2 luciferase reporter cells; format: cell-based; conditions: Homo sapiens, read-out: TNF-only stimulated cell IC50
Procedure: (§2) The promoter of the IL17 target gene lipocalin 2 (LCN2) inserted into pGL4-luciferase vector (pGL4[luc2P/LCN2/Hygro], obtained from Promega) was used to generate a stable clone in HeLa cells (ATCC) using hygromycin. In response to IL17 stimulation the increase in LCN2-luciferase gene transcription can be monitored using the luciferase reporter assay as described below. The reporter cells (HeLa-LCN2) were cultured in Dulbecco's modified Eagle's medium supplemented with 10% (v/v) fetal bovine serum, 0.2 mg/mL hygromycin, and 1% penicillin and streptomycin. Cells were maintained at 37 °C in a humidified atmosphere of 5% CO2. The assay media contained Dulbecco's modified Eagle's medium supplemented with 0.5% Charcoal-stripped FBS and 1% penicillin and streptomycin. About 7500 cells per well were plated in 40 ul assay media in a 384-well black plate (Grenier, #781,090) for 16 h. Then cells were stimulated with IL17A (10 ng/mL) and TNF (20 ng/mL) for 6 h at 37 °C and 5% CO2. The supernatant was removed and 25 µL of One-Glo reagent (#E6110, Promega) was added to the wells and luminescence was measured using Envision multimode plate reader. Background signal was measured using the same protocol by stimulating cells with TNF (20 ng/mL) in the absence of IL17A. All inhibition experiments were normalized against DMSO control containing no inhibitor. Example raw data are shown in Supplementary Fig. 10B.

[5] = test system: IL17A/TNF stimulated HeLa cells carrying an LCN2 promoter-driven luciferase reporter; assay: IL17A/TNF stimulated HeLa-LCN2 luciferase reporter cells; format: cell-based; conditions: for IC50: Homo sapiens, HeLa LCN2 luciferase reporter, IL17A and TNF, read-out: IL17A/TNF stimulated cell IC50
Procedure: as §2

IL17RA = molecular target: T3, IL17RA (Homo sapiens, UniProt Q96F46); assay: SPR of IL17A WT and truncated IL17A binding to IL17RA; conditions: IL17A construct binding to IL17RA
T3 construct: purchased Sino Biological
Procedure: (§3) To interrogate IL17A—IL17RA binding and the effect of compound binding to IL17A for interaction with IL17RA, Biotinylated Avi tag IL17RA was immobilized using CAP chip. IL17A WT protein with and without compounds was injected over the immobilized IL17RA surface. The surface was regenerated using mixture of 8 M Guanidine Hydrochloride and 1 M Sodium Hydroxide. To profile both IL17A WT and truncated-IL17A binding to IL17RA, Fc tag IL17RA (Sino Biological) was captured on immobilized anti-Fc (Human Fc from Pierce) surface. IL17A WT (34–155)C129S and Truncated (34–148)C129S was injected at flow rate of 80 µL/min for contact time of 180 s and dissociation was monitored for 1200 s. The surface was regenerated with 2 consecutive injections (60 s and 10 s at 60 µL/min) of 10 mM Glycine, pH 1.5.

[6] = test system: T4, IL17A-IL17RA interactions; assay: SPR competition assay: IL17A +/- inhibitor over immobilized IL17RA; format: binding; conditions: IL17A +/- inhibitor injected over immobilized IL17RA
T4 construct: IL17A WT (34–155)C129S and Truncated (34–148)C129S was injected; Trx-6His (N, cleaved yes); made in house; host or cells: Escherichia coli Shuffle T7 express (NEB) for IL17A
Procedure: as §3
Supplemental Figure 6: C-terminal binding site compounds can disrupt IL17A binding to its receptor in SPR competition assay. Biotinylated Avi-tagged IL17RA was captured on CAP chip; IL17A +/- inhibitor samples were injected over immobilized IL17RA . Cmpd 1 was used as the positive control. [picture]

IL17A [7] = molecular target: T5, IL17A (Homo sapiens, UniProt Q16552, C129S); assay: 2D NMR titration of compound binding to IL17A
T5 construct: For crystallography, NMR and early SPR studies, IL17A (34–155)C129S; Trx-6His (N, cleaved yes); made in house; host or cells: Escherichia coli Shuffle T7 express (NEB)
T5 sequence (Q16552 34-155 C129S): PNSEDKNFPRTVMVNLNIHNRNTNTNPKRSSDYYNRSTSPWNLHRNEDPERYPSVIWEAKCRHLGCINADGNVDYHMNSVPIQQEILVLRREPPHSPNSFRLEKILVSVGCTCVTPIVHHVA
Procedure: NMR spectra were acquired on either a Bruker 500 MHz AVANCE III spectrometer or a Bruker 600 MHz AVANCE III HD spectrometer, both with cryoprobes, on 60 µM protein samples in 20 mM deuterated TRIS buffer, pH 8.0, with 150 mM NaCl. For fragment screening, fragments were added from a concentrated DMSO stock to a concentration of 1 mM in the NMR tube. As described above, fragments were initially added as mixtures of 12 and those mixtures which induced significant changes in a 13C-HSQC spectrum of the protein were then deconvoluted to find the individual binders.

IL17A [8] = molecular target: T1, IL17A; assay: Isothermal titration calorimetry with IL17A dimer; format: binding; conditions: reverse titration, 50 mM sodium phosphate pH 7.0; read-out: ITC affinity (KD)
Procedure: Supplemental Figure 7: Isothermal titration calorimetry of Cmpd 10. Theoretical binding of 1 molecule to a IL17A dimer would result in N of 0.5. Observed stoichiometry was 0.7. 200 µM IL17A (dimer) used injected (reverse titration) to 20 µM Cmpd 10 in 50 mM sodium phosphate pH 7.0.

[9] = disruption of IL17A-IL17RA-Fc complex formation, read-out: IL17A/IL17RA-Fc AlphaLISA IC50

Competition for IL17A with FP probe (IL17A [1]): full competition
Kd (IL17A [2]): 0.21 µM and 0.209 µM
IC50 (IL17A-IL17RA-Fc complex; [9]): 1.3 µM
IC50 [4]: > 70 µM
IC50 [5]: 5.7 µM
Molecule: O=C(COc1ccccc1CNc1cc(C(=O)O)cc(-c2ccnc3ccccc23)c1)NCCOCCOc1ccccc1CNc1cc(C(=O)O)cc(-c2ccnc3ccccc23)c1 [Cmpd 9, 3-((2-(2-(2-(2-(2-(((3-carboxy-5-(quinolin-4-yl)phenyl)amino)methyl)-phenoxy)acetamido)ethoxy)ethoxy)-benzyl)amino)-5-(quinolin-4-yl)benzoic acid]
IC50 [3]: ~57 µM

Kd (IL17A [2]): > 250 µM
Molecule: C/C=C/c1cccc2c(N)n[nH]c12 [Cmpd 4, (E)-7-(prop-1-en-1-yl)-1H-indazol-3-amine]

Molecule: C-terminal deletion: IL17A construct (aa 34–148) lacking the final C-terminal residues (aa 149–155)
Interaction with IL17RA by SPR (IL17RA): did not productively interact with IL17RA

Kd (IL17A [2]): ~70 µM and 72 µM
Molecule: Clc1ncc(NCc2ccccc2)cc1-c1cccc2ncccc12 [Cmpd 6, N-benzyl-6-chloro-5-(quinolin-5-yl)pyridin-3-amine]

Kd (IL17A [2]): ~0.004 µM
Binding efficiency index (BEI) (IL17A [2]; from SPR KD and molecular weight): 11–13
Potency in biochemical assays (IL17A-IL17RA-Fc complex; positive control in biochemical assays): low nM potency
Molecule: O=C1CC2(CCCC2)CC(=O)NC(Cc2ccc(NC(=O)C(Cc3ccccc3Cl)NC(=O)Cc3cccc(O)c3)cc2)C(=O)NCCOCCOCCN1 (stereo not drawn) [Cmpd 1, reference compound]
Concentration needed to block cellular signaling ([5]; positive control in cellular assays): ~ 3 µM

Competition for IL17A with FP probe (IL17A [1]): full competition
Kd (IL17A [2]): 0.37 µM
IC50 (IL17A-IL17RA-Fc complex; [9]): 3.6 µM and ~4 µM
IC50 [4]: ~51 µM
IC50 [5]: 4.7 µM
Molecule: O=C(COc1ccccc1CNc1cc(C(=O)O)cc(-c2ccnc3ccccc23)c1)NCCNC(=O)COc1ccccc1CNc1cc(C(=O)O)cc(-c2ccnc3ccccc23)c1 [Cmpd 8, 5,5'-((((((ethane-1,2-diylbis(azanediyl))bis(2-oxoethane-2,1-diyl))bis(oxy))-bis(2,1-phenylene))bis(methylene))bis(azanediyl))bis(3-(quinolin-4-yl)benzoic acid)]
Disruption of IL17A-IL17RA interactions in SPR-based assay [6]: could block IL17A receptor interactions; also recorded: showed disruption of IL17A-IL17RA interactions
IC50 [3]: ~54 µM

Kd (IL17A [7]): 12 µM
Molecule: c1ccc(CNc2cncc(-c3ccc4[nH]nc(NCCN5CCOCC5)c4c3)c2)cc1 [Cmpd 5, 5-(5-(benzylamino)pyridin-3-yl)-N-(2-morpholinoethyl)-1H-indazol-3-amine]

IC50 (IL17A [1]; unlabeled compound pre-bound to IL17A before addition of FP probe): 0.107 µM
Kd (IL17A [2]): 0.043 µM and < 0.1 µM
IC50 (IL17A-IL17RA-Fc complex; inhibition of IL17A/IL17RA-Fc interactions, read-out: IL17A/IL17RA-Fc IC50): 0.74 µM
IC50 [4]: > 50 µM
IC50 [5]: 1.3 µM
Kd (IL17A [8]): 0.044 µM
Molecule: O=C(O)c1cc(NCc2ccccc2OCCOCCOCCOc2ccccc2CNc2cc(C(=O)O)cc(-c3ccnc4ccccc34)c2)cc(-c2ccnc3ccccc23)c1 [Cmpd 10]
